# Data taken from patent publication US8481494B2, “Compounds for the treatment of diseases related to protein misfolding” (priority 2009, dated 2013).
# Like-named read-outs stand apart in the source and are kept apart here. *1 amine or outer side, *2 acyl side, *3 side chain or, on linkers, in order; H or OH if unused. Where a SMILES comes first, the peptide text is derived from it. [ ]: non-standard residue; d: D form. The star is where a group is joined. X1 = O=C(c1cc([N+](=O)[O-])n[nH]1)*; X2 = O=C(c1cc(N[*:1])n[nH]1)[*:2]; AEEEA = NCCOCCOCCOCC(=O)O
# Legend:
# Aβ(1-42) = molecular target: T1, Aβ(1-42) (Homo sapiens, UniProt P05067); assay: ThT equilibrium inhibition assay of Aβ aggregation; assay type: biochemical; details: for ThT fluorescence level, inhibition of aggregation: 33 μM Aβ42, 198 μM ligand, 10 mM PBS pH 7.3, 72 h
# T1 construct: Aβ(1-42)-peptide (Bachem, Bubendorf, Germany) was prepared in HFIP; purchased Bachem, Bubendorf
# T1 sequence (P05067 672-713 limits assumed): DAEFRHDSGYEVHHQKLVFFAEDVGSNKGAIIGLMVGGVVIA
# Procedure: After 72 h, the aggregation process has reached a maximum in the absence or presence of any trimeric ligand, even for the slow Aβ (1-40) peptide. The respective equilibrium concentration is then indicated by the relative fluorescence intensity reached at the end point. The full series of new aminopyrazole trimer derivatives was subjected to ThT inhibition experiments and the final equilibrium was analyzed by comparison of the respective fluorescence intensities of intercalated dye at 482 nm (exc. at 442 nm). […] Their proposed mechanism of action is discussed within the next chapters together with all the other biophysical, biochemical as well as modeling data.
# (§1) Thioflavin T (ThT) measurements were carried out in a 384-well plate (Nunc GmbH, Wiesbaden, Germany) in an InfiniTe 200 plate reader (Tecan GmbH, Crailsheim, Germany). Fluorescence intensity was measured at 37° C., 446 nm excitation wavelength (bandwidth 9 nm) and 490 nm emission wavelength with a bandwidth of 20 nm. Each data point was averaged over 40 lamp flashes. Each measurement cycle was started by shaking the sample carrier orbitally for 30 s at medium intensity to avoid settling of larger aggregates. The 384-well plate was covered with a transparent and DMSO-stable film (Nunc GmbH, Wiesbaden, Germany). Each single sample was composed of 33 μM Aβ(1-40) or rather Aβ(1-42) in 10 mM PBS (phosphate buffered saline), 10.7% DMSO, 10 μM ThT and 198 μM of the test compound. For graph representation emission values of fourfold samples were averaged. Each test compound was measured separately, both in 10 mM PBS and 10 mM PBS with ThT to exclude any potential interactions between ligand and ThT.
# The ThT assay solution was briefly centrifugated and it was pipetted in a 384-well plate. The ThT fluorescence was measured at λEx=446 nm and λEm=490 nm. Each point is the average of quadruplication.
# [1] = molecular target: T2, preformed Aβ(1-42) fibrils (Homo sapiens, UniProt P05067); assay: ThT equilibrium disaggregation assay of preformed fibrils; assay type: biochemical; details: 33 μM Aβ42 preformed fibrils, 198 μM ligand, 10 mM PBS pH 7.3
# T2 construct: Aβ(1-42)-peptide (Bachem, Bubendorf, Germany) was prepared in HFIP; purchased Bachem, Bubendorf
# T2 sequence (P05067 672-713 limits assumed): as above
# Description: Starting from preformed fibrils, the disassembly process was also monitored with the full series of modified trimeric aminopyrazoles. […] In other words, little difference is observed between the end points of aggregation assays, in which the ligand inhibits de novo aggregation starting from monomeric Aβ molecules, and those experiments, which require disaggregation of preformed fibrils by externally added ligand. Experimental evidence is thus provided for the fact, that aminopyrazole ligands operate in a fully reversible fashion, and reach an open equilibrium when the thermodynamically most favorable complex is formed.
# as §1
# After that, 9.5 μL ThT (62.7 μM stock solution) was pipetted and the assay solution was briefly centrifugated. The ThT fluorescence was measured at λEx=446 nm and λEm=490 nm. For graph representation emission values of fourfold samples were averaged.
# [2] = test system: differentiated rat pheochromocytoma (PC-12) cells; assay: cells
# Procedure: Next, to examine whether the aminopyrazole trimers could protect cell from Aβ42-induced neurotoxicity, cells were treated for […] with 10 μM Aβ(1-42), a concentration that produces 30 to 40% decrease in cell viability, in the absence or presence of 100 μM of each compound. The viability of the cells then was assessed using the MTT assay.
# MTT viability assays. Cell viability assays were performed as described in Fradinger et al. (Fradinger et al., PNAS, 2008). Rat pheochromocytoma (PC-12) cells were maintained in F-12 nutrient mixture with Kaighn's modification (F-12K) (Gibco BRL, Carlsbad, Calif.) with 15% heat-inactivated horse serum and 2.5% FBS at 37° C. in an atmosphere of 5% CO2. For cell viability assays, cells were plated in 96-well plates at a density of 25,000 cells per well in differentiation media (F-12K, 0.5% FBS, […] nerve growth factor) and maintained for 48 h. Aβ42 was solubilized in a minimal amount of DMSO (Sigma) and then diluted in the F-12K media in the absence or presence of the compounds and then added to cells and incubated for 48 h at 37° C. The final Aβ42 concentration was always kept constant at 10 μM. The stock solutions of the compounds were prepared at 10 mM in DMSO and diluted in the F-12K media at the required concentration. Negative controls included DMSO at the same concentration as in the peptide solutions and media alone. A positive control was […] staurosporine as lethal dose which represented 100% reduction in cell viability, based on which the percentage viability of all of the experimental conditions was calculated. Cell viability was assessed quantitatively by the CellTiter 96 Non-Radioactive Cell Proliferation Assay (Promega). Briefly, 15 μl of 3-(4,5-dimethylthiazol-2-yl)-2,5-diphenyltetra-zolium bromide (MTT) dye solution was incubated with the cells for 3 h. Then 100 μl of solubilization/stop solution was added and the plates were incubated overnight in the dark to ensure complete solubilization. Plates were read by using a Synergy HT microplate reader (BioTek), and the absorbance at 570 nm (formazan product) minus the absorbance at 630 nm (background) was recorded. Corrected absorbance was used to calculate the percent cell viability from the experimental change (Amedia-Aexperimental) over the dynamic range (Amedia-Astaurosporine). At least three independent experiments with six replicates (n≧18) were carried out, and the results were averaged.
# To determine the IC50 value of each of the compounds, dose-dependence MTT experiments with the compounds were conducted. Aβ42 was used at 10 μM and the compounds were used at 100, 30, 10, 3, 1 and 0.3 μM. Three independent experiments with six replicates (n≧18) were carried out, and results were averaged. The data for each compound was fitted to the following equation to get the IC50 values. y=Bottom+((Top−Bottom)/(1+10^(x-log(IC^50^))))
# Top: the y value at which the top of the sigmoidal curve becomes parallel to the X-axis; Bottom: the y value at which the bottom of the sigmoidal curve becomes parallel to the X-axis.
# Also, MTT viability assays were run with differentiated PC-12 cells.
Compound,"ThT fluorescence level, inhibition of aggregation (Aβ(1-42))","ThT fluorescence level, disaggregation [1]",solubility,IC50 [2],"ThT values compared with the original trimer (Aβ(1-42); Aβ(1-42), in words)","viability increase (rescue from Aβ toxicity) ([2]; PC-12 cells, 10 μM Aβ(1-42), 100 μM compound)","IC50 ([2]; read-out: IC50 of inhibition of Aβ-induced toxicity, PC-12 cells, MTT, Aβ42 10 μM, ligand 0.3-100 μM)"
"1-(3-(3-(3-nitro-1H-pyrazole-5-carboxamido)-1H-pyrazole-5-carbox-amido)-1H-pyrazol-5-yl)-1-oxo-5,8,11-trioxa-2-azatridecan-13-carboxamido-(S)-lysinyl-(S)-lysinyl-(S)-lysinyl-(S)-lysinyl-(S)-lysinyl-(S)-glycine [Trimer-TEG-KKKKKG-OH]",20%,20%,–,–,–,–,–
"NCCCC[C@H](NC(=O)c1cc(NC(=O)c2cc(NC(=O)c3cc([N+](=O)[O-])n[nH]3)n[nH]2)n[nH]1)C(=O)N[C@@H](CCCCN)C(=O)N[C@@H](CCCCN)C(=O)N[C@@H](CCCCN)C(=O)N[C@@H](CCCCN)C(=O)NCC(=O)O [Trimer-KKKKKG-OH, 3-(3-(3-nitro-1H-pyrazole-5-carboxamido)-1H-pyrazole-5-carboxamido)-1H-pyrazole-5-carboxamido-(S)-lysinyl-(S)-lysinyl-(S)-lysinyl-(S)-lysinyl-(S)-lysinyl-(S)-glycine] (X1-[X2][X2]KKKKKG-OH)",20%,20%,> 4.95 mM,–,–,–,–
"CC(C)C[C@H](NC(=O)[C@H](CCCCN)NC(=O)COCCOCCOCCNC(=O)c1cc(NC(=O)c2cc(NC(=O)c3cc([N+](=O)[O-])n[nH]3)n[nH]2)n[nH]1)C(=O)N[C@H](C(=O)N[C@@H](Cc1ccccc1)C(=O)N[C@@H](Cc1ccccc1)C(=O)O)C(C)C [Trimer-TEG-KLVFF-OH, 1-(3-(3-(3-Nitro-1H-pyrazole-5-carboxamido)-1H-pyrazole-5-carbox-amido)-1H-pyrazol-5-yl)-1-oxo-5,8,11-trioxa-2-azatridecan-13-carboxamido-(S)-lysinyl-(S)-leucinyl-(S)-valinyl-(S)-phenylalaninyl-(S)-phenylalanine] (X1-[X2][X2][AEEEA]KLVFF-OH)",–,–,0.2 to 4.95 mM,> 100 µM,–,–,–
"COC(=O)C(CCCCN)NC(=O)COCCOCCOCCNC(=O)c1cc(NC(=O)c2cc(NC(=O)c3cc([N+](=O)[O-])n[nH]3)n[nH]2)n[nH]1.O=C(O)C(F)(F)F (stereo not drawn) [Trimer-TEG-Lys-OMe, Trifluoro-acetate5-methoxycarbonyl-5-(2-{2-[2-(2-{[5-({5-[(5-nitro-2H-pyrazole-3-carbonyl)-amino]-2H-pyrazole-3-carbonyl}-amino)-2H-pyrazole-3-carbonyl]-amino}-ethoxy)-ethoxy]ethoxy}-acetylamino)-pentyl-ammonium]",20%,20%,–,–,surpass the original trimer activity,> 40%,52.7 µM
